Where “and” joins values, the source holds several entries; their conditions need not be identical. Equal entries are not always repeated.
Experiment: Dosimetry sub-study, first 12 patients, cycle 1 (SPECT/CT, TIAC, OLINDA 2.2.3)
Assay type: in vivo, human
Conditions: for dose estimate, Mean: Eclipse; for Extrapolation of Absorbed Dose to 6 Cycles Assuming 7.4 GBq per cycle: kidneys; for Kidneys Absorbed Dose Assuming 7.4 GBq per cycle: one cycle; for Effective Dose Cycle 1: whole body
Method: Twelve subjects were administered a target activity of 7.4 GBq (mean 7.56±0.17 GBq) of [^177Lu]Lu-PSMA-I&T. Following the infusion, subjects underwent single photon emission computed tomography (SPECT)/computed tomography (CT) imaging at four timepoints (4 hours, 24 hours, 48 hours, and 168 hours). Image data was analyzed to compute time integrated activity coefficients (TIAC) in each organ of interest defined a priori in the independent review charter and in organs showing appreciable and meaningful [^177Lu]Lu-PSMA I&T activity. Segmented organs included kidneys, bladder, liver, lacrimal glands, salivary glands, intestine, lumbar vertebrae L2-L4, and whole body. To compute subject-specific organ doses, organ-level TIAC data were entered into Organ Level Internal Dose Assessment (OLINDA 2.2.3) and resulting organ doses for each target organ and whole-body effective dose were collated and averaged.
Patients received SPECT/CT imaging (anatomical coverage included the salivary gland in most of the patients and extended through the pelvis) following the injection of 7.4 (±10%) GBq of [^177Lu]Lu-PSMA-I&T (detailed injected doses are reported in Table 36). All patients completed the first treatment cycle, and the acquisition of images was carried out. To note, for patient 37-016 the 168 hours SPECT/CT timepoint wasn't acquired, whereas patient 12-004 48 hours scan was presenting unrealistically high values, and the 48 hours scan was therefore excluded from further analysis.
The imaging data was analyzed using Invicro's VivoQuant software, a validated software used in a 21 CFR § 11-compliant workflow. The general quantification approach was based on the principles detailed in the Medical Internal Radiation Dose (MIRD) Pamphlet No. 16, No 23, and No 26, as appropriate.
Each SPECT image was co-registered with its corresponding CT. Image calibration was performed to convert the counts measured on the SPECT images to activity (Bq). The same SPECT/CT system was used in each patient for the entirety of the dosimetry study.
Regions of interest (ROI) (kidneys, bladder, liver, lumbar vertebrae L2-L4, lacrimal glands, salivary glands (parotid and submandibular glands), and whole body) were drawn on each dataset by a trained image analyst. […] Lumbar vertebrae L2-L4 was delineated for all patients on the CT images to derive red marrow doses.^4 For kidneys, a ROI was drawn on the SPECT image encompassing all the uptake seen in the kidneys. Similarly for lacrimal glands, all the uptake observed on the SPECT image at the lacrimal glands' location was segmented. [^177Lu]Lu-PSMA-I&T distribution in a patient imaged over time is represented in FIG. 16.
Time-activity curves of the activity in each ROI as a function of time were plotted. These curves were normalized by the known injected activity to arrive at units of fraction of injected activity. Calculations of time-integrated activity coefficient (TIAC, in units of hours) were performed for each region of interest listed above.
Clearance of the tracer was derived from a data-appropriate fit of each organ time activity curve (TAC). Depending on the shape of the TAC, the data was fitted with the sum of one, two or three exponentials or using a rise and fall model. TIACs were calculated through analytical integration of the curve fit extrapolated to infinite. […] The remainder activity was determined by subtracting the cumulative organ TIACs from the whole body TIAC.
Organ TIACs were inputted into Organ Level Internal Dose Assessment, OLINDA 2.2.3 for the computation of organ and whole-body absorbed doses and effective dose (computed using ICRP-103 weighing factors). ICRP-89 derived male phantom was used for dose estimation. Organs and body weights as defined by ICRP-89 were scaled based on height and mass using the patient effective mass. Kidney volumes were measured for each patient on the CT images and used for the kidneys mass of the ICRP-89 phantom assuming a density of 1 g/ml. […]

[1] = individual subjects, listed as [^177Lu]Lu-PSMA-I&T

## O=C([O-])CC[C@H](NC(=O)N[C@@H](CCCCNC(=O)CCCCCCC(=O)NCCCC[C@@H](NC(=O)[C@@H](Cc1ccccc1)NC(=O)[C@@H](Cc1ccc(O)c(I)c1)NC(=O)CC[C@H](C(=O)[O-])N1CCN(CC(=O)[O-])CCN(CC(=O)[O-])CCN(CC(=O)[O-])CC1)C(=O)[O-])C(=O)[O-])C(=O)[O-].[177Lu+3].[H+].[H+].[H+].[H+].[H+] [^177Lu-PSMA I&T, (3S,7S,26R,29R,32R,37R)-29-benzyl-32-(4-hydroxy-3-iodobenzyl)-5,13,20,28,31,34-hexaoxo-37-(4,7,10-tris(carboxymethyl)-1,4,7,10-tetraazacyclododecan-1-yl)-4,6,12,21,27,30,33-heptaazaheptatriacontane-1,3,7,26,37-pentacarboxylic acid; lutetium-177 (III)]
12 patients, cycle 1
  Mean whole body effective dose: 0.095±0.048 mSv/MBq
  Whole-body time integrated activity coefficient, mean: 24.1 ± 18.7 h
  absorbed dose, kidneys: 0.43±0.18 Gy/GBq
  absorbed dose, lacrimal glands: 0.67±0.33 Gy/GBq
  absorbed dose, left colon: 0.54±0.42 Gy/GBq
  absorbed dose, rectum: 0.52±0.40 Gy/GBq
  absorbed dose, red marrow: 0.08±0.15 Gy/GBq
  absorbed dose, right colon: 0.30±0.23 Gy/GBq
  absorbed dose, salivary glands: 0.13±0.08 Gy/GBq
  absorbed dose, urinary bladder wall: 0.38±0.03 Gy/GBq
12 patients, cycle 1, 7.4 GBq
  Whole-body time integrated activity coefficients, mean: 24.1 ± 18.7 h
12 patients, 7.4 GBq per cycle
  estimated absorbed dose for the kidneys after 6 cycles, max: 35.83 Gy
  estimated absorbed dose for the kidneys after 6 cycles, min: 9.9 Gy
12 patients, 7.4 GBq per cycle, listed as [^177Lu]Lu-PSMA-I&T
  estimated mean absorbed dose for the kidneys after 6 cycles: 19.3 Gy and 19.3±8.0 Gy
Adrenals, cycle 1, 12 patients
  Absorbed Dose, Mean: 0.03 Gy/GBq
Brain, cycle 1, 12 patients
  Absorbed Dose, Mean: 0.02 Gy/GBq
Esophagus, cycle 1, 12 patients
  Absorbed Dose, Mean: 0.02 Gy/GBq
Eyes, cycle 1, 12 patients
  Absorbed Dose, Mean: 0.02 Gy/GBq
Gallbladder Wall, cycle 1, 12 patients
  Absorbed Dose, Mean: 0.02 Gy/GBq
Heart Wall
  dose estimate, Mean: 0.02 Gy/GBq
Heart Wall, cycle 1, 12 patients
  Absorbed Dose, Mean: 0.02 Gy/GBq
Kidneys
  dose estimate, Mean: 0.43 Gy/GBq
Kidneys, cycle 1, 12 patients
  Absorbed Dose, Mean: 0.43 Gy/GBq
Lacrimal gland
  dose estimate, Mean: 0.67 Gy/GBq
Lacrimal glands (OLINDA sphere model), cycle 1
  Absorbed Dose, Mean: 0.67 Gy/GBq
Left colon
  dose estimate, Mean: 0.54 Gy/GBq
Left colon, cycle 1, 12 patients
  Absorbed Dose, Mean: 0.54 Gy/GBq
Liver
  dose estimate, Mean: 0.04 Gy/GBq
Liver, cycle 1, 12 patients
  Absorbed Dose, Mean: 0.04 Gy/GBq
Lungs, cycle 1, 12 patients
  Absorbed Dose, Mean: 0.02 Gy/GBq
Osteogenic Cells, cycle 1, 12 patients
  Absorbed Dose, Mean: 0.05 Gy/GBq
Pancreas, cycle 1, 12 patients
  Absorbed Dose, Mean: 0.02 Gy/GBq
Prostate, cycle 1, 12 patients
  Absorbed Dose, Mean: 0.02 Gy/GBq
Rectum
  dose estimate, Mean: 0.52 Gy/GBq
Rectum, cycle 1, 12 patients
  Absorbed Dose, Mean: 0.52 Gy/GBq
Red Marrow
  dose estimate, Mean: 0.08 Gy/GBq
Red Marrow, cycle 1, 12 patients
  Absorbed Dose, Mean: 0.08 Gy/GBq
Right colon
  dose estimate, Mean: 0.30 Gy/GBq
Right colon, cycle 1, 12 patients
  Absorbed Dose, Mean: 0.30 Gy/GBq
Salivary Glands, cycle 1, 12 patients
  Absorbed Dose, Mean: 0.13 Gy/GBq
Salivary glands
  dose estimate, Mean: 0.13 Gy/GBq
Small Intestine, cycle 1, 12 patients
  Absorbed Dose, Mean: 0.06 Gy/GBq
Spleen
  dose estimate, Mean: 0.03 Gy/GBq
Spleen, cycle 1, 12 patients
  Absorbed Dose, Mean: 0.03 Gy/GBq
Stomach Wall, cycle 1, 12 patients
  Absorbed Dose, Mean: 0.02 Gy/GBq
Testes, cycle 1, 12 patients
  Absorbed Dose, Mean: 0.02 Gy/GBq
Thymus, cycle 1, 12 patients
  Absorbed Dose, Mean: 0.02 Gy/GBq
Thyroid
  dose estimate, Mean: 0.02 Gy/GBq
Thyroid, cycle 1, 12 patients
  Absorbed Dose, Mean: 0.02 Gy/GBq
Total Body, cycle 1, 12 patients
  Absorbed Dose, Mean: 0.03 Gy/GBq
Urinary Bladder Wall, cycle 1, 12 patients
  Absorbed Dose, Mean: 0.38 Gy/GBq
Urinary bladder wall
  dose estimate, Mean: 0.38 Gy/GBq
Cycle 1, Mean of 12 subjects
  Whole Body TIAC: 24.1 h
Cycle 1, Mean of 12 subjects (Table 41)
  Kidneys Absorbed Dose: 0.43 Gy/GBq
Cycle 1, individual subjects (Table 41), listed as [^177Lu]Lu-PSMA-I&T
  Kidneys Absorbed Dose: 0.64 Gy/GBq and 0.34 Gy/GBq and 0.81 Gy/GBq and 0.29 Gy/GBq and 0.27 Gy/GBq (2×) and 0.22 Gy/GBq and 0.48 Gy/GBq and 0.32 Gy/GBq and 0.54 Gy/GBq and 0.41 Gy/GBq and 0.57 Gy/GBq
Cycle 1, individual subjects, listed as [^177Lu]Lu-PSMA-I&T
  Whole Body TIAC: 8.2 h and 17.2 h and 41.7 h and 14.4 h and 69.7 h and 43.7 h and 11.1 h and 12.6 h and 19.7 h and 14.2 h and 8.5 h and 27.6 h
Cycle 1, individual subjects, listed as [^177Lu]Lu-PSMA-I&T, absorbed dose per injected activity, Gy/GBq
  Kidneys Absorbed Dose: 0.27 Gy/GBq (2×) and 0.22 Gy/GBq and 0.48 Gy/GBq and 0.32 Gy/GBq and 0.54 Gy/GBq and 0.41 Gy/GBq and 0.57 Gy/GBq and 0.64 Gy/GBq and 0.34 Gy/GBq and 0.81 Gy/GBq and 0.29 Gy/GBq
Cycle 1, individual subjects, listed as [^177Lu]Lu-PSMA-I&T, total absorbed dose, Gy
  Kidneys Absorbed Dose: 2.00 Gy and 2.36 Gy and 3.99 Gy and 3.08 Gy and 4.48 Gy and 2.26 Gy
Mean of 12 subjects
  Extrapolation of Absorbed Dose to 6 Cycles Assuming 7.4 GBq per cycle: 19.3 Gy
  Kidneys Absorbed Dose Assuming 7.4 GBq per cycle: 3.2 Gy
  Effective Dose Cycle 1: 0.09 mSv/MBq
[1]
  Extrapolation of Absorbed Dose to 6 Cycles Assuming 7.4 GBq per cycle: 28.5 Gy and 15.0 Gy and 35.8 Gy and 13.0 Gy and 11.8 Gy and 9.9 Gy and 21.3 Gy and 12.0 Gy and 14.0 Gy and 23.8 Gy and 18.0 Gy and 25.1 Gy
  Kidneys Absorbed Dose Assuming 7.4 GBq per cycle: 4.8 Gy and 2.5 Gy and 6.0 Gy and 2.2 Gy and 2.0 Gy (2×) and 1.7 Gy and 3.6 Gy and 2.3 Gy and 4.0 Gy and 3.0 Gy and 4.2 Gy
  Effective Dose Cycle 1: 0.03 mSv/MBq (2×) and 0.09 mSv/MBq and 0.12 mSv/MBq and 0.11 mSv/MBq (2×) and 0.16 mSv/MBq and 0.19 mSv/MBq and 0.07 mSv/MBq (2×) and 0.06 mSv/MBq and 0.08 mSv/MBq
